Experimental data published in US8445511B2, “Quinoline or quinoxaline derivatives for treating neurodegenerative diseases” (Centre National de la Recherche Scientifique (SNRS), priority 2008, dated 2013).

Test system: PC12 pheochromocytoma cells
Assay: Differentiating activity on PC12 pheochromocytoma cells
Format: cell-based
Conditions: 100 nM and 1 μM
Procedure: The cells are maintained in […] flasks at 37° C. in a humid atmosphere enriched by 5% CO2 in RPMI medium supplemented with 10% horse serum, 5% fetal calf serum, 1% glutamine and 1% penicillin/streptomycin mixture. The horse and fetal calf serums are decomplemented for 40 minutes at 56° C. before use. The cultures are divided when they reach 80% confluence, approximately every 3 days. Each operation is performed by scraping the cells and then centrifugation at 1,000 rpm for 5 minutes, mechanical dissociation of the cell aggregates and inoculation at the dilution desired. Before treatment, the cells are cultivated 5 days in a deprivation medium composed of RPMI supplemented with 1% horse serum, 0.5% fetal calf serum, 1% glutamine, 1% penicillin/streptomycin and 50 ng/ml NGF (nerve growth factor). After 5 days of pretreatment with NGF, the cells are washed twice with PBS (phosphate buffered saline), taken up in deprivation medium, scraped and pelleted at 1,000 rpm for 5 minutes. The cells are then dissociated, counted on a hemocytometer and inoculated at a concentration of 15.6×10^3 cells/cm^2. After 4 hours, the cells are treated by various compounds of the invention at the concentrations desired (stock solutions in absolute ethanol and then a series of dilutions in water). […] At least 20 differentiated cells per well are photographed at random and the length of their neurites are measured using the NeuronJ macro of the ImageJ software. The number of neurites is also counted. Mean total neurite length and number of neurites are then calculated per cell. […] In order to quantify the differentiation of PC12 cells we calculated the ratio between the number of cells emitting dendritic extensions and the total number of cells 48 hours after treatment with our substances at 100 nM and at 1 μM. Morphological changes at the microscopic level were quantified for the cells emitting extensions at approximately 100 cells per condition. Thus number of neurites and mean neurite length per cell were measured using the NeuronJ measurement software by ImageJ.

In the case of `C#CC(O)CCCCCCCCCCCCC#Cc1ccc2ccccc2n1` (stereo not drawn) [Compound N3, 17-(quinolin-2-yl)heptadec-1,16-diyn-3-ol], the “cells producing extensions (percentage of PC12 cells differentiated) by comparison with untreated cells” value (48 hours after treatment, FIG. 1A) was “two to three times as many cells produce extensions”, the “mean neurite length per cell compared to the control” value (PC12 cells, FIG. 1B) was “longer” and the “number of neurites per cell compared to the control” value (PC12 cells, FIG. 1B) was “more”.
